From patent US10022373B2, “Posaconazole pharmaceutical compositions and preparation methods, uses and pharmaceutical formulations thereof” (SINOTHERAPEUTICS INC., priority 2014, dated 2018)
Like-named read-outs stand apart in the source and are kept apart here.

How the values were obtained:
[1] = cited from earlier work
[2] = Dissolution rate, USP II paddle method, simulated in vivo condition; type: physicochemical; conditions: medium conversion pH 1.2→6.8
Protocol: Analytical method for dissolution samples: the same as the HPLC method in the above assay of apparent solubility.
It was reported that the pH value in human stomach was about 1.2, and that in human intestine was about 6.8. The dissolution of each of the pharmaceutical compositions of the present invention was determined under a stimulated in vivo condition, and the results are shown in Table 1-3.

[3] = Apparent solubility in phosphate buffer solution pH 6.8; type: physicochemical
Protocol: Weighting an excess amount of posaconazole pharmaceutical composition into a container, adding phosphate buffer solution (pH 6.8, about ⅔ of the volume of the container), and then placing the container in a shaking table at 37° C., and shaking for 3 h. Filtering the content with a 0.45 μm filter membrane, collecting the filtrate, diluting it with an appropriate amount of methanol, vortex mixing, and then determining the concentration of posaconazole via the following HPLC method: […]

- Dissolution ([2]; pH 1.2, 5 min): 89.0%
- Dissolution ([2]; pH 1.2, 10 min): 87.0%
- Dissolution ([2]; pH 1.2, 30 min): 98.7%
- Dissolution ([2]; pH 6.8, 60 min): 7.1%
- Dissolution ([2]; pH 6.8, 120 min): 5.6%
- Dissolution ([2]; pH 6.8, 180 min): 5.6%
- solubility at 3 h ([3]; aqueous buffer, thermodynamic from solid, phosphate buffer solution pH 6.8, 37° C., shaking 3 h): < 1 µg/mL
- Apparent solubility ratio (composition/API) ([3]; phosphate buffer solution pH 6.8): 1
SMILES: CC[C@@H]([C@H](C)O)n1ncn(-c2ccc(N3CCN(c4ccc(OC[C@@H]5CO[C@@](Cn6cncn6)(c6ccc(F)cc6F)C5)cc4)CC3)cc2)c1=O [API, 4-[4-[4-[4-[[(3R,5R)-5-(2,4-difluorophenyl)-5-(1,2,4-triazole-1-ylmethyl)oxolan-3-yl]methoxy]phenyl]piperazin-1-yl]phenyl]-2-[(2S,3S)-2-hydroxypentan-3-yl]-1,2,4-triazol-3-one]
- Solubility ([1]; free base form, environment of the stomach pH=˜1.2): about 0.8 mg/ml
- Solubility ([1]; pH higher than 4): < 1 µg/mL
